Measured values: US5219841A, “Treatment of arrhythmia by administration of Ap4 A” (Fujirebio, Inc., priority 1989, dated 1993)
“Also recorded” adds a separate entry of the source.

Tests used:
[1] = tested on: guinea pig right atrium; assay: Effect on heart rate of isolated guinea pig right atrium; conditions: for change of heart rate (bradycardic effect): single dose, 10^-7 to 10^-4 M, KH solution, 31° C.
Procedure: A guinea pig (b.w. 450 g) was stunned and was immediately removed its heart to excise the right atrium therefrom. The right atrium was then suspended in a Magnus tube (30 ml) filled with Krebs-Henseleit (KH) solution which was maintained at 31° C. constantly aerating with a mixture of 95% O2 --5% CO2 therein. After the KH solution was changed with the fresh one at 15-minutes intervals and the heart rate of the right atrium was stabilized in 60-90 minutes, Ap4 A or ATP which was prepared at different concentrations was added to the KH solution in a single dose to determine the change of heart rate. Drug concentrations of 10^-4, 10^-5, 10^-6 and 10^-7 M were employed in this experiment. The heart rate was determined with a cardiotachometer (Nihon Kohden Co.; Model AT601G; Japan) and an isometric converter (Nihon Kohden Co.; Model TB-651T), with a 1-g weight load.

[2] = tested on: ouabain-induced cardiac arrhythmia; assay: Ouabain-induced arrhythmia model; format: in vivo, guinea pig; conditions: for antiarrhythmic effect: onset of P-P interval prolongation, T-P overlapping, ventricular arrhythmia, ventricular fibrillation and cardiac arrest: i.v. infusion over 5 min: ATP 10 or 30 mg/kg, Ap4 A 30 mg/kg, disopyramide 5 mg/kg, ouabain 7 μg/kg/min
Procedure: With a guinea pig (b.w. 450 g) placed under urethane anesthesia (1.1 g/kg), its femoral vein, jugular vein and carotid artery were cannulated. Ap4 A, ATP or disopyramide was injected into the femoral vein and ouabain into the jugular vein through each cannula, while the carotid artery was utilized for a blood pressure monitoring. Changes associated with the administration of the drug were assessed by monitoring electrocardiogram (ECG), blood pressure, mean blood pressure and heart rate (Nihon Kohden Co.; Models AB620G, AP601G and AT601G). ECG was recorded in accordance with the lead II.
Ouabain-induced cardiac arrhythmia model was prepared by continuous infusion of ouabain at a rate of 7 μg/kg/min via the jugular vein. Each drug was administered by intravenous infusion over a period of 5 minutes at the following dose: ATP, 10 or 30 mg/kg; Ap4 A, 30 mg/kg; and disopyramide, 5 mg/kg. The drug was administered simultaneously with the infusion of ouabain. The antiarrhythmic effect of the drug tested was assessed in terms of the total dose of ouabain given until onset of each of the following parameters: P-P interval prolongation, T-P overlapping, ventricular arrhythmia, ventricular fibrillation and cardiac arrest.

[3] = tested on: adrenaline-induced cardiac arrhythmia; assay: Adrenaline-induced arrhythmia model; format: in vivo, guinea pig; conditions: for incidence of extrasystole: 10 mg/kg/5min i.v., adrenaline 10 μg/kg, control value 39%; for antiarrhythmic effect (reduction of incidence of extrasystole): i.v. infusion over 5 min: ATP 3 or 10 mg/kg, Ap4 A 3 or 10 mg/kg, propranolol 1 mg/kg
Procedure: With a guinea pig (b.w. 450 g) placed under urethane anesthesia (1.1 g/kg), its femoral vein, jugular vein and carotid artery were cannulated. Ap4 A, ATP or propranolol was injected into the femoral vein and adrenaline into the jugular vein through each cannula, while the carotid artery was utilized for a blood pressure monitoring. Changes associated with the administration of the drug were monitored in the same manner as above (B), and ECG was recorded in accordance with the lead II.
Adrenaline-induced cardiac arrhythmia model was prepared by injecting adrenaline (10 μg/kg) into the jugular vein over 5 seconds. Each drug was administered by intravenous infusion over a period of 5 minutes at the following dose: ATP, 3 or 10 mg/kg; Ap4 A, 3 or 10 mg/kg; propranolol, 1 mg/kg. Adrenaline was administered in a single dose 4 minutes after administration of the drug tested. The grading of arrhythmia was assessed in terms of the incidence of extrasystole.

[4] = tested on: platelet aggregation; assay: Platelet aggregation by the drug itself in absence of ADP; format: cell-based, rabbit
[5] = tested on: arrhythmia; conditions: cited from earlier work; for antiarrhythmic activity: Somlo 1955, Komor and Garas 1955
[6] = Fujii and Nakamura 1977; cited from earlier work
[7] = tested on: guinea pig heart; assay: Coronary vasodilative effect, Langendorff perfusion of isolated heart
Procedure: An experiment was performed by a modification of the method of Aronson and Serlick [Toxicol. Appl. Pharmac., 38, 479-488 (1976) and 39, 157-176 (1977); Biochem. Pharmac. 26, 2297-2305 (1977)]. The guinea pig heart removed was started perfusing at the origin of the aorta by the Langendorff perfusion method. Perfusion was carried out at 37° C. and 14 ml/min of flow rate with a peristalic pump (TAIYO TYPE 1500N; Japan) in Krebs-Henseleit solution (KH: NaCl, 118 mM; phosphate, 1.2 mM; NaHCO3, 25 mM; glucose, 10 mM; KCl, 4.7 mM; CaCl2, 2.5 mM; and MgSO4, 1.2 mM; pH 7.4; bubbling with 95% O2 - 5% CO2). After the initiation of the perfusion, an incision was made in the left auricle and a cannula was inserted into the left ventricle via the left atrium to measure the left ventricular pressure with a pressure transducer (Nihon Kohden Co.; Model TP-200T). The differential value of the left ventricular pressure (dp/dt) was measured with a cardiotachometer (Nihon Kohden Co.; Model AT-601G). The perfusion pressure was determined with a pressure transducer connected to the aortic cannula. Ap4 A was dissolved in KH at various concentrations and administered to the perfusion system in a single dose of 1-100 μg/0.1 ml/5 sec or by a continuous infusion of 1-100 μg/5ml/15 min.

[8] = tested on: ADP-induced platelet aggregation; assay: ADP-induced platelet aggregation in platelet-rich plasma; format: cell-based, rabbit; conditions: ADP 5 μM
Procedure: Blood was collected from the carotid artery of an unanesthetized rabbit into a syringe containing one volume of 3.8% sodium citrate per nine volumes of blood. The citrated blood was centrifuged at 1100 rpm for 15 minutes, and the supernatant was obtained as platelet-rich plasma (PRP). To 200 μl of PRP in an aggregometer, 10 μl of ATP or Ap4 A solution was added and the mixture was incubated at 37° C. for 10 minutes, followed by addition of 10 μl of 0.1 mM ADP solution (final concentration: 5μM) to induce and measure the aggregation of platelets. Results obtained for ATP are shown in FIG. 5A and those for Ap4 A in FIG. 5B.

[9] = Half lethal dose, Lichfield-Wilcoxon method; conditions: in vivo, iv, rat
From the text: Ap4 A is a novel type of nucleotide discovered in human platelets in a recent year and has the following chemical structure: [drawing 1] The active ingredient Ap4 A of the pharmaceutical composition according to the present invention is thus preferably in a form of a pharmaceutically acceptable salt thereof such as sodium salt, or it may be in a form of free acid thereof. Ap4 A can be produced by a conventional organic synthesis or by an enzymatic synthesis with, for example, leucyl tRNA synthetase derived from thermophilic Bacillus stearothermoohillus (Japanese Patent Application Laid-Open (KOKAI) No. 62-278992; U.S. Pat. NO. 4886749; EP-A-247819), using ATP as the starting material in either method. […] J. Physiol., 254, 828-832 (1988)].

[10] = tested on: adenosine diphosphate (ADP)-stimulated human platelet aggregation; conditions: Luthje and Ogiluie 1984; cited from earlier work
[11] = tested on: baby hamster kidney cells; conditions: Grummt 1978; cited from earlier work
[12] = tested on: hepatocytes; conditions: Rapaport and Zamecnick 1976; cited from earlier work
[13] = tested on: rabbit mesenteric artery; conditions: Busse et al. 1988; cited from earlier work
[14] = 3×10^-5 M or more, absence of ADP
[15] = single dose 1-100 μg/0.1 ml/5 sec

Nc1ncnc2c1ncn2[C@@H]1O[C@H](COP(=O)(O)OP(=O)(O)OP(=O)(O)O)[C@@H](O)[C@H]1O [ATP, Adenosine 5'-triphosphate, reference compound]
change of heart rate (bradycardic effect) [1]: reduced the heart rate with a dose-dependency; also recorded: decreased the atrial heart rate with a dose-dependency
antiarrhythmic effect: onset of P-P interval prolongation, T-P overlapping, ventricular arrhythmia, ventricular fibrillation and cardiac arrest [2]: has an antiarrhythmic activity; also recorded: inhibited all these parameters
incidence of extrasystole [3]: 5.3%
antiarrhythmic effect (reduction of incidence of extrasystole) [3]: reduced the incidence of extrasystole with a dose-dependency; also recorded: dose-dependent reduction of the incidence of extrasystole
platelet aggregation by the drug itself [4, 14]: caused a dose-dependent aggregation of platelets
minimal effective concentration ([4]; Oryctolagus cuniculus, Platelet, absence of ADP, read-out: concentration causing dose-dependent aggregation of platelets): ≥ 30 µM
platelet-aggregating activity ([4]; in words, found by the inventors): has platelet-aggregating activity
antiarrhythmic activity [5]: possess the antiarrhythmic activity
effect on paroxysmal supraventricular tachycardia ([5]; clinical, Otsuka et al. 1986): successful arrest of the paroxysmal supraventricular tachycardia; also recorded: efficacy against the paroxysmal supraventricular tachycardia which is insusceptible to other antiarrhythmic drugs such as verapamil, digoxin and ajimaline
vasodilation and other pharmacological effects [6]: vasodilation; also recorded: enhancement of in vivo metabolic activity; also recorded: increase in muscle contraction; also recorded: rise of efficiency of the neural transmission

Nc1ncnc2c1ncn2[C@@H]1O[C@H](COP(=O)(O)OP(=O)(O)OP(=O)(O)OP(=O)(O)OC[C@H]2O[C@@H](n3cnc4c(N)ncnc43)[C@H](O)[C@@H]2O)[C@@H](O)[C@H]1O [Ap4 A, diadenosine 5',5'''-P^1,P^4 -tetraphosphate]
relative potency vs ATP (change of heart rate) ([1]; 10^-4 M): 2.1 -fold
relative potency vs ATP (change of heart rate) ([1]; 10^-5 M): 1.5 -fold
relative potency vs ATP (change of heart rate) ([1]; 10^-6 M): 1.5 -fold
potency compared with ATP (percent change of heart rate) ([1]; in words): prone to be more potent than ATP; also recorded: tends to be greater than that of ATP
change of heart rate (bradycardic effect) [1]: reduced the heart rate with a dose-dependency; also recorded: decreased the atrial heart rate with a dose-dependency
antiarrhythmic effect compared with ATP ([2]; 30 mg/kg i.v., same dose of ATP): practically the same as that of ATP, or slightly lower; also recorded: virtually comparable with or slightly inferior to that of ATP
antiarrhythmic effect: onset of P-P interval prolongation, T-P overlapping, ventricular arrhythmia, ventricular fibrillation and cardiac arrest [2]: inhibited the onsets of such parameters as P-P interval prolongation, T-P overlapping, ventricular arrhythmia, ventricular fibrillation and cardiac arrest; also recorded: inhibited all these parameters
incidence of extrasystole [3]: 8.0%
antiarrhythmic effect (reduction of incidence of extrasystole) [3]: reduced the incidence of extrasystole with a dose-dependency; also recorded: dose-dependent reduction of the incidence of extrasystole
antiarrhythmic effect compared with ATP ([3]; i.v., incidence of extrasystole): somewhat inferior to that of ATP; also recorded: somewhat weaker than that of ATP
perfusion pressure and left ventricular pressure ([7]; continuous infusion 1-100 μg/5ml/15 min): the perfusion pressure and the left ventricular pressure decreased depending on the dose of Ap4 A
dose showing coronary vasodilative effect without affecting heart rate or left ventricular pressure ([7]; e.g.): 1 µg
heart rate [7, 15]: marked decrease of heart rate
left ventricular pressure [7, 15]: fell transiently after administration and subsequently it was elevated
perfusion pressure [7, 15]: dose-dependent fall of perfusion pressure; also recorded: observed from the lowest dose of Ap4 A
perfusion pressure (coronary vasodilative activity) ([7]; single or continuous dose): the perfusion pressure decreased depending on the dose
inhibition of ADP-induced platelet aggregation ([8]; 3×10^-5 M to 3×10^-4 M, in words): markedly inhibited ADP-induced platelet aggregation with a dose-dependency; also recorded: inhibited by Ap4 A with a dose-dependency
inhibition at 300 µM ([8]; Oryctolagus cuniculus, Platelet, 3×10^-4 M, rabbit PRP, 37° C., 10 min preincubation, vs control): 76%
inhibition at 30 µM ([8]; Oryctolagus cuniculus, Platelet, 3×10^-5 M, rabbit PRP, 37° C., 10 min preincubation, vs control): 21%
platelet aggregation by the drug itself [4, 14]: did not cause platelet aggregation at all
platelet aggregation by the drug itself ([4]; even at 3×10^-4 M): no activity of platelet aggregation; also recorded: no effect of the platelet aggregation
LD50 [9]: 102 mg/kg
effect on ADP-stimulated human platelet aggregation [10]: inhibitory effect
DNA synthesis [11]: enhancement of DNA synthesis
growth of hepatocytes [12]: promotion of the growth of hepatocytes
vasodilative action [13]: vasodilative action

Nc1ncnc2c1ncn2[C@@H]1O[C@H](CO)[C@@H](O)[C@H]1O [adenosine]
antiarrhythmic activity [5]: possess the antiarrhythmic activity

CC(C)N(CCC(C(N)=O)(c1ccccc1)c1ccccn1)C(C)C (stereo not drawn) [disopyramide, reference compound]
antiarrhythmic effect: onset of P-P interval prolongation, T-P overlapping, ventricular arrhythmia, ventricular fibrillation and cardiac arrest [2]: has an antiarrhythmic activity; also recorded: inhibited all these parameters

CC(C)NCC(O)COc1cccc2ccccc12 (stereo not drawn) [propranolol, reference compound]
antiarrhythmic effect (reduction of incidence of extrasystole) [3]: reduced the incidence of extrasystole with a dose-dependency; also recorded: dose-dependent reduction of the incidence of extrasystole
